# In PubChem BioAssay AID623876 (Vanderbilt Specialized Chemistry Center, 2012):
# Values joined by “and” are separate entries in the source; they are usually repeats but may differ in a detail not shown here. Identical values can stand only once. Active and inactive are the calls of the source.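 How the source made its calls: active means mean EC50 dose giving half the maximal effect below 30 µM; inactive means mean EC50 of 30 µM or more.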
# Target: Metabotropic glutamate receptor 4 (Homo sapiens) (UniProt Q14833)
# Test: mGlu4 positive allosteric modulators, SAR follow-up, human, CHO Gqi5 cells, calcium mobilization (AID 623876)
# Conditions: CHO hmGlu4/Gqi5 calcium mobilization, PAM at EC20 glutamate; for % glutamate max response: hits give high values
# Sequence of Metabotropic glutamate receptor 4 (Homo sapiens) (Q14833 whole entry, looked up): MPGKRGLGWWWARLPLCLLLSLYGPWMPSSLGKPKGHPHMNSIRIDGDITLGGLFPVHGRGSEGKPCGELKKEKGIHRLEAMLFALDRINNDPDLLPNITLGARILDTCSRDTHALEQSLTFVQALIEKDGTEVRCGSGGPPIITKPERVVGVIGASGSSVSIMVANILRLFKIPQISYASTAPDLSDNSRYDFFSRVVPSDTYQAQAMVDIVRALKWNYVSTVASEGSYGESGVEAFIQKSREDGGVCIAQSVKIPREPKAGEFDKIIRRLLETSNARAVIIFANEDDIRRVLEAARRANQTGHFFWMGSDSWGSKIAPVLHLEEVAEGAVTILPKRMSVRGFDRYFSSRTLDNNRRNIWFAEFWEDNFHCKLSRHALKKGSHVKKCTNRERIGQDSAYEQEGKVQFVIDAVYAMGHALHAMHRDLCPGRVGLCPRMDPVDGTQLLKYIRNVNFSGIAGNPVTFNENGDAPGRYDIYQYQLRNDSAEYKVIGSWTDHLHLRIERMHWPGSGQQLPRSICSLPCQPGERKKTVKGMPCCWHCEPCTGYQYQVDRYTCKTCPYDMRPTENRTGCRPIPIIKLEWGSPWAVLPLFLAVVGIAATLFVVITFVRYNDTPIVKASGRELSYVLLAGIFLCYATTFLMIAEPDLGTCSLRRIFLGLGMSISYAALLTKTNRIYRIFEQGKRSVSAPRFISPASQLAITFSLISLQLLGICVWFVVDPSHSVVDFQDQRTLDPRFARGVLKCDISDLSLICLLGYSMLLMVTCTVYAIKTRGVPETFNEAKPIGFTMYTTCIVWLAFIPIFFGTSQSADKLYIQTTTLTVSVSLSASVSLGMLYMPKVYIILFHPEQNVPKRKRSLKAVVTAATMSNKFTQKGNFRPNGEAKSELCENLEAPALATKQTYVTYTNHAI
Structure (SMILES),EC50,% glutamate max response
Fc1ccc2nc(-c3ccccn3)[nH]c2c1,> 10 µM,–
COc1cc(Nc2cccc3cccnc23)ccc1Cl,–,inactive
COc1cc(N2Cc3ccccc3C2=O)ccc1Cl,–,inactive
Clc1cccc(Nc2nc3ccccc3o2)c1,0.6 µM,–
O=C(Nc1nc(C(F)(F)F)cs1)c1ccccn1,> 10 µM,–
COc1cccc(C(=O)N2CCOc3ccc(Cl)cc32)n1,–,inactive
Fc1cccc(Nc2ncnc3cccnc23)c1,–,inactive
COc1cc(N2C(=O)c3ccccc3C2=O)ccc1Cl,–,inactive
O=C(c1ccccn1)N1CCOc2c(Cl)cccc21,–,inactive
O=C1COc2cc(NC(=O)c3ccccn3)ccc2N1,–,inactive
Clc1cccc(Nc2nccc3ccccc23)c1,–,inactive
O=C(Nc1ccc2cc[nH]c2c1)c1ccccn1,> 10 µM,–
O=C(c1ccccn1)N(Cc1ccccn1)c1cccc(Cl)c1,–,inactive
Cn1ccc(NC(=O)c2ccccn2)n1,–,inactive
COc1cc(Nc2ncn3ccccc23)ccc1Cl,–,inactive
COc1cc(N2C(=O)c3cccnc3C2=O)ccc1Cl,–,inactive
Cc1nc(NC(=O)c2ccccn2)nn1C,–,inactive
O=C(c1ccncn1)N1CCOc2ccc(Cl)cc21,–,inactive
COc1cc(NC(C)=O)ccc1Cl,–,inactive
O=C(NCCc1cccc(Cl)c1)c1ccccn1,–,inactive
c1cnc2c(Nc3ccc4c(c3)OCO4)ncnc2c1,–,inactive
CCN(C(=O)c1ccccn1)c1cccc(Cl)c1,–,inactive
c1ccc(Nc2coc3cccnc23)cc1,–,inactive

Structure (SMILES),EC50,% glutamate max response
O=C(Nc1ccc2c(c1)C(=O)NC2=O)c1ccccn1,3.82 µM,–
Fc1cccc(Nc2noc3cccnc23)c1,1.19 µM,–
O=C(Nc1ccc2cn[nH]c2c1)c1ccccn1,1.37 µM,–
Clc1cccc(Nc2coc3cccnc23)c1,> 10 µM,–
COc1cc2nc(-c3ccccn3)[nH]c2cc1Cl,> 10 µM,–
O=C1c2cccnc2C(=O)N1c1cccc(Cl)c1,–,inactive
Clc1cccc(-c2nc(-c3ccccn3)no2)c1,–,inactive
O=C(c1cccs1)N1CCOc2ccc(Cl)cc21,–,inactive
O=C(c1cscn1)N1CCOc2ccc(Cl)cc21,> 10 µM,–
Brc1cccc(-c2nc(-c3ccccn3)no2)c1,–,inactive
COc1cc(NC(=O)c2ccccc2F)ccc1Cl,> 10 µM,–
CC(C)N(C(=O)c1ccccn1)c1cccc(Cl)c1,> 10 µM,–
COc1cc(Nc2nc3ccccc3o2)ccc1Cl,–,inactive
O=C(NCc1cccc(Cl)c1)c1ccccn1,–,inactive
COc1cc(Nc2nccc3cccnc23)ccc1Cl,–,inactive
COc1cc2nc(-c3cnccn3)[nH]c2cc1Cl,–,inactive
O=C(c1ccco1)N1CCOc2ccc(Cl)cc21,–,inactive
O=C(Nc1cccc(Cl)c1)c1ccccn1,1.2 µM,–
O=C(c1cccc(Cl)n1)N1CCOc2ccc(Cl)cc21,–,inactive
Cc1nsc(NC(=O)c2ccccn2)n1,–,inactive
COc1cc(NC(=O)c2c(F)cccc2F)ccc1Cl,–,inactive
COc1cc(OC)cc(-c2nc(-c3ccccn3)no2)c1,–,inactive
COc1cc(NC(=O)c2ccccc2C)ccc1Cl,–,inactive

Structure (SMILES),EC50,% glutamate max response
O=C(c1cncs1)N1CCOc2ccc(Cl)cc21,–,inactive
FC(F)(F)c1cccc(-c2nc(-c3ccccn3)no2)c1,–,inactive
Clc1cccc(Nc2noc3cccnc23)c1,0.47 µM and 0.3 µM and 0.25 µM,–
COc1cc(NS(=O)(=O)c2ccccn2)ccc1Cl,–,inactive
Cn1cnc(NC(=O)c2ccccn2)n1,–,inactive
COc1cc(Nc2noc3cccnc23)ccc1Cl,3.26 µM,–
Cn1ccnc1NC(=O)c1ccccn1,–,inactive
FC(F)Oc1cccc(Nc2noc3cccnc23)c1,0.36 µM and 0.44 µM,–
c1ccc(Nc2ncnc3cccnc23)cc1,–,inactive
Cc1cc(Nc2ncnc3cccnc23)ccc1Cl,–,inactive
Clc1cccc(Nc2cccc3cccnc23)c1,–,inactive
Clc1ccc2nc(-c3ccccn3)[nH]c2c1,4.68 µM,–
O=c1[nH]c(-c2ccccn2)nc2cc(Cl)ccc12,> 10 µM,–
COc1cc2nc(-c3ncc[nH]3)[nH]c2cc1Cl,> 10 µM,–
Clc1cccc(Nc2ncnc3cccnc23)c1,7.22 µM,–
Fc1ccc(Nc2ncnc3cccnc23)cc1Cl,–,inactive
COc1cc(Nc2nccc3ccccc23)ccc1Cl,–,inactive
Clc1cccc(-c2n[nH]c(-c3ccccn3)n2)c1,–,inactive
O=C(c1ccccn1)N1CCOc2ccc(Cl)cc21,–,inactive
Clc1cccc(Nc2nccc3cccnc23)c1,–,inactive
Fc1ccc(Nc2ncnc3cccnc23)cc1F,–,inactive
COc1ccc(Nc2ncnc3cccnc23)cc1Cl,–,inactive
Clc1cccc(Nc2ccccn2)c1,> 10 µM,–
